pIC50: −log10 of the molar value.
Tested on: recombinant rabies virus 1088 strain expressing Gaussia Luciferase (GLuc) (1088/GLuc)
Type: cell-based
Conditions: read-out: Anti-rabies activity

| SMILES | pIC50 |
| --- | --- |
| CC(C)C[C@@H]1[C@@H]2CN[C@@]3(C(=O)NCc4cccc5ccccc45)[C@@H](C2)CN(CCCNC(=N)N)[C@@H]13 (relative stereo) [IB-164, (3S*, 3aS*, 6R*, 7R*, 7aS*)-1-(3-guanidinopropyl)-7-isobutyl-N-(naphthalen-1-ylmethyl)octahydro-3aH-3,6-methanopyrrolo[3,2-b]pyridine-3a-carboxamide] | > 5.30 |
| CCCCCCNC(=O)[C@]12NC[C@@H]3C[C@H]1CN(CCCNC(=N)N)[C@H]2[C@@H]3CCc1ccccc1 (relative stereo) [IB-174] | 4.52 to 5.00 |
| CC(C)C[C@@H]1[C@@H]2CN[C@@]3(C(=O)NC(C)C)[C@@H](C2)CN(CCCNC(=N)N)[C@@H]13 (relative stereo) [IB-176] | 4.52 to 5.00 |
| CC(C)NC(=O)[C@]12NC[C@@H]3C[C@H]1CN(CCCNC(=N)N)[C@H]2[C@@H]3CCc1ccccc1 (relative stereo) [IB-179] | 4.52 to 5.00 |
| N=C(N)NCCCN1C[C@@H]2C[C@H]3CN[C@]2(C(=O)NCc2ccc(F)cc2)[C@@H]1[C@@H]3Cc1ccccc1 (relative stereo) [IB-182] | 4.52 to 5.00 |
| CC(C)CNC(=O)[C@]12NC[C@@H]3C[C@H]1CN(CC(C)C)[C@H]2[C@@H]3CCCNC(=N)N (relative stereo) [IB-187] | 4.52 to 5.00 |
| CC(C)CCNC(=O)[C@]12NC[C@@H]3C[C@H]1CN(CC(C)C)[C@H]2[C@@H]3CCCNC(=N)N (relative stereo) [IB-192] | > 5.30 |
| CC(C)CNC(=O)[C@]12NC[C@@H]3C[C@H]1CN(Cc1ccccc1)[C@H]2[C@@H]3CCCNC(=N)N (relative stereo) [IB-198] | 4.52 to 5.00 |
| N=C(N)NCCC[C@@H]1[C@@H]2CN[C@@]3(C(=O)NCCc4ccccc4)[C@@H](C2)CN(Cc2ccccc2)[C@@H]13 (relative stereo) [IB-247] | 4.52 to 5.00 |
| CCCCCCNC(=O)[C@]12NC[C@@H]3C[C@H]1CN(Cc1ccccc1)[C@H]2[C@@H]3CCCNC(=N)N (relative stereo) [IB-249] | 4.52 to 5.00 |
| N=C(N)NCCC[C@@H]1[C@@H]2CN[C@@]3(C(=O)NCc4ccc(F)cc4)[C@@H](C2)CN(Cc2ccccc2)[C@@H]13 (relative stereo) [IB-250] | 4.52 to 5.00 |
| CCCCCCNC(=O)[C@]12NC[C@@H]3C[C@H]1CN(CCc1ccccc1)[C@H]2[C@@H]3CCCNC(=N)N (relative stereo) [IB-256] | 4.52 to 5.00 |
| N=C(N)NCCC[C@@H]1[C@@H]2CN[C@@]3(C(=O)NCc4ccccc4)[C@@H](C2)CN(Cc2ccc(F)cc2)[C@@H]13 (relative stereo) [IB-260] | 4.52 to 5.00 |
| N=C(N)NCCC[C@@H]1[C@@H]2CN[C@@]3(C(=O)NCCc4ccccc4)[C@@H](C2)CN(Cc2ccc(F)cc2)[C@@H]13 (relative stereo) [IB-262] | 4.52 to 5.00 |
| CC(C)CC[C@@H]1[C@@H]2CN[C@@]3(C(=O)NCCC(N)=O)[C@@H](C2)CN(Cc2ccccc2)[C@@H]13 (relative stereo) [IB-274] | 4.52 to 5.00 |
| N=C(N)NCCCNC(=O)[C@]12NC[C@@H]3C[C@H]1CN(Cc1ccccc1)[C@H]2[C@@H]3Cc1ccccc1 (relative stereo) [IB-276] | 4.52 to 5.00 |
| N=C(N)NCCCNC(=O)[C@]12NC[C@@H]3C[C@H]1CN(Cc1ccccc1)[C@H]2[C@@H]3CCc1ccccc1 (relative stereo) [IB-279] | 4.52 to 5.00 |
| N=C(N)NCCCNC(=O)[C@]12NC[C@@H]3C[C@H]1CN(Cc1ccccc1)[C@H]2[C@@H]3Cc1cccc2ccccc12 (relative stereo) [IB-280] | 4.52 to 5.00 |
| N=C(N)NCCCN1C[C@@H]2C[C@H]3CN[C@]2(C(=O)NCc2ccccc2)[C@@H]1[C@@H]3Cc1cccc2ccccc12 (relative stereo) [IB-300] | 4.52 to 5.00 |
| N=C(N)NCCCN1C[C@@H]2C[C@H]3CN[C@]2(C(=O)NCCc2ccccc2)[C@@H]1[C@@H]3Cc1cccc2ccccc12 (relative stereo) [IB-327] | 4.52 to 5.00 |

| SMILES | pIC50 |
| --- | --- |
| CC(C)CC[C@@H]1[C@@H]2CN[C@@]3(C(=O)NCCC(N)=O)[C@@H](C2)CN(CCc2ccccc2)[C@@H]13 (relative stereo) [IB-342] | 4.52 to 5.00 |
| N=C(N)NCCCNC(=O)[C@]12NC[C@@H]3C[C@H]1CN(CCc1ccccc1)[C@H]2[C@@H]3Cc1ccccc1 (relative stereo) [IB-344] | 4.52 to 5.00 |
| CC(C)CC[C@@H]1[C@@H]2CN[C@@]3(C(=O)NCCCNC(=N)N)[C@@H](C2)CN(CCc2ccccc2)[C@@H]13 (relative stereo) [IB-346] | 4.52 to 5.00 |
| N=C(N)NCCCNC(=O)[C@]12NC[C@@H]3C[C@H]1CN(CCc1ccccc1)[C@H]2[C@@H]3Cc1cccc2ccccc12 (relative stereo) [IB-347] | 4.52 to 5.00 |
| CC(C)CC[C@@H]1[C@@H]2CN[C@@]3(C(=O)NCCC(N)=O)[C@@H](C2)CN(Cc2cccc4ccccc24)[C@@H]13 (relative stereo) [IB-349] | > 5.30 |
| CC(C)C[C@@H]1[C@@H]2CN[C@@]3(C(=O)NCCCNC(=N)N)[C@@H](C2)CN(Cc2cccc4ccccc24)[C@@H]13 (relative stereo) [IB-350] | 4.52 to 5.00 |
| N=C(N)NCCCNC(=O)[C@]12NC[C@@H]3C[C@H]1CN(Cc1cccc4ccccc14)[C@H]2[C@@H]3Cc1ccccc1 (relative stereo) [IB-351] | 4.52 to 5.00 |
| CC(C)CC[C@@H]1[C@@H]2CN[C@@]3(C(=O)NCCCNC(=N)N)[C@@H](C2)CN(Cc2cccc4ccccc24)[C@@H]13 (relative stereo) [IB-353] | > 5.30 |
| N=C(N)NCCCNC(=O)[C@]12NC[C@@H]3C[C@H]1CN(Cc1cccc4ccccc14)[C@H]2[C@@H]3CCc1ccccc1 (relative stereo) [IB-354] | > 5.30 |
| CC(C)CC[C@@H]1[C@@H]2CN[C@@]3(C(=O)NCCC(N)=O)[C@@H](C2)CN(CC2CCCCC2)[C@@H]13 (relative stereo) [IB-357] | 4.52 to 5.00 |
| CC(C)CC[C@@H]1[C@@H]2CN[C@@]3(C(=O)NCCCNC(=N)N)[C@@H](C2)CN(CC2CCCCC2)[C@@H]13 (relative stereo) [IB-361] | 4.52 to 5.00 |
| N=C(N)NCCCNC(=O)[C@]12NC[C@@H]3C[C@H]1CN(CC1CCCCC1)[C@H]2[C@@H]3CCc1ccccc1 (relative stereo) [IB-362] | > 5.30 |
| CC(C)CC[C@@H]1[C@@H]2CN[C@@]3(C(=O)NCCC(N)=O)[C@@H](C2)CN(Cc2ccc(F)cc2)[C@@H]13 (relative stereo) [IB-365] | 4.52 to 5.00 |
| CC(C)CC[C@@H]1[C@@H]2CN[C@@]3(C(=O)NCCCNC(=N)N)[C@@H](C2)CN(Cc2ccc(F)cc2)[C@@H]13 (relative stereo) [IB-369] | 4.52 to 5.00 |
| CC(C)CC[C@@H]1[C@@H]2CN[C@@]3(C(=O)NCC(C)C)[C@@H](C2)CN(CCO)[C@@H]13 (relative stereo) [IB-372] | 4.52 to 5.00 |
| CC(C)CC[C@@H]1[C@@H]2CN[C@@]3(C(=O)NCC(C)C)[C@@H](C2)CN(CC(C)C)[C@@H]13 (relative stereo) [IB-378] | > 5.30 |
| CC(C)CCN1C[C@@H]2C[C@H]3CN[C@]2(C(=O)NCCC(=O)O)[C@@H]1[C@@H]3Cc1cccc2ccccc12 (relative stereo) [IB-381] | 4.52 to 5.00 |
| CC(C)CNC(=O)[C@]12NC[C@@H]3C[C@H]1CN(CCC(=O)O)[C@H]2[C@@H]3CCc1ccccc1 (relative stereo) [IB-430] | > 5.30 |
| CC(C)CNC(=O)[C@]12NC[C@@H]3C[C@H]1CN(CCC(=O)O)[C@H]2[C@@H]3CO (relative stereo) [IB-431] | 4.52 to 5.00 |
| CC(C)C[C@@H]1[C@@H]2CN[C@@]3(C(=O)NCc4ccc(O)cc4)[C@@H](C2)CN(CCc2ccccc2)[C@@H]13 (relative stereo) [IB-449] | 4.52 to 5.00 |

Source: EP4104902B1, “COMPOUNDS AND M[…] SAME” (priority 2020, dated 2021)
